Earlier results as cited in US20030125233A1, “Use of urokinase inhibitors for the treatment and/or prevention of pulmonary hypertension and/or cardiac remodelling” (priority 2000, published 2003).

Legend:
[1] = test system: tumor metastasis; conditions: Kellen et al. 1988
[2] = test system: angiogenesis/capillary network formation; conditions: Alliegro et al. 1991

Q: Which results are given for `N=C(N)NC(=O)c1nc(Cl)c(N)nc1N` [amiloride]?
A: tumor metastasis in vivo [1]: inhibit; angiogenesis/capillary network formation in vitro [2]: inhibit
